How the values were obtained:
Format in all cases: in vivo, NZB/W F1 mice
T cells in splenocytes = assay: T cell proliferation in splenocytes of ASLN mice (3H-methyl thymidine); conditions: anti-CD3 stimulated splenocytes, vs ASLN group, p<0.01, FIG. 6
Experimental: (§1) An accelerated severe lupus nephritis (ASLN) mouse model was established in 8-week-old female NZB/W F1 mice by twice weekly intraperitoneal injection of lipopolysaccharide (LPS, 20 mg/kg body weight) (Sigma, NO, USA) as described in Shui et al., 2007 [51]. Two days after first dose of LPS for the ASLN induction, the mice were divided into two groups of more than 6 mice each and daily administrated with ginsenoside M1 or vehicle (normal saline) via oral gavage till mice sacrificed. 8-Week-old NZB/W F1 female mice (prior to onset of autoantibody production), injected with normal saline, were used as normal controls. All mice were killed at week 5 after disease induction. The tissue specimens of spleen, renal cortical tissue, blood, and urine were collected at the indicated times and stored appropriately before analysis.
Splenocytes from the mice were prepared as described previously, then were cultured in triplicate in wells (2.5×10^5 cells/well) in 96-well flat-bottom microtiter plates previously coated overnight at 4° C. with 0.25 μg/ml anti-mouse CD3 (145-2C11) antibodies (BD Biosciences). After 48 h, the cultures were pulsed with […] of ^3H-methyl thymidine (Amersham Pharmacia Biotech, Piscataway, N.J.) and harvested 16-18 h later, and the incorporated ^3H-methyl thymidine was measured using a Top Count (Packard, PerkinElmer, Boston, Mass.) as described previously.

[1] = test system: accelerated severe lupus nephritis (ASLN) mouse model; assay: Renal histopathology (H&E) in ASLN mouse model; conditions: ASLN mice, H&E light microscopy, FIG. 2
Experimental: as §1, with “The tissue specimens of spleen, renal cortical tissue, blood, and urine were collected at the indicated times and stored appropriately before analysis.” left out
Renal tissues were formalin-fixed, embedded in paraffin, and sections (3 μm) prepared and stained with hematoxylin and eosin (H&E) for renal histopathology as described previously. Quantitative analysis was performed by optical microscopy (Olympus BX51, Reflected Fluorescence System, Japan). The examination of renal pathology and scoring were performed in a blinded manner by a pathologist, and the severity of renal lesions was scored. The percentage of glomeruli showing proliferation, neutrophil infiltration, crescent formation, fibrinoid necrosis, and periglomerular inflammation was calculated from at least 100 randomly sampled glomeruli.

[2] = test system: Toll-like receptor (TLR)7 gene expression; assay: Real-time RT-PCR of renal cortex TLR7 mRNA in ASLN mice; conditions: normalized to GAPDH, vs ASLN group, p<0.01, FIG. 7
Experimental: as §1
Renal cortex RNA was extracted using TRIzol reagent (Invitrogen) according to the manufacturer's instructions, and real-time reverse transcription-polymerase chain reaction (RT-PCR) was used to measure Toll-like receptor (TLR)7 gene expression. Real-time quantification was performed using a Bio-Rad iCycler iQ system according to the manufacturer's instructions. Amplifications were normalized to the values for GAPDH using the 2^−ΔCt method.

[3] = test system: serum inflammatory cytokines; assay: Serum cytokine detection (Cytometric Bead Array) in ASLN mice; conditions: vs ASLN group
Experimental: as §1
To detect the level of IFN-γ, MCP-1, IL-12 p70, IL-6, TNF-α and IL-10 in serum by using BD Cytometric Bead Array Mouse Inflammation kit (BD Biosciences), according to the standard protocol, followed by flow cytometry (BD Biosciences).

anti-dsDNA antibodies = assay: Serum anti-dsDNA antibodies (ELISA) in ASLN mice; conditions: vs ASLN group, p<0.01, FIG. 3
Experimental: as §1
Serum levels of anti-dsDNA antibodies were measured using an anti-mouse dsDNA enzyme-linked immunosorbent assay (ELISA) kit (Alpha Diagnostic, TX, USA) according to the manufacturer's instructions. The absorbance at 450 nm was measured using an ELISA plate reader (Bio-Tek, VT, USA).

[4] = test system: accelerated severe lupus nephritis (ASLN) mouse model; assay: Urine protein, hematuria and renal function in ASLN mouse model
Experimental: as §1, with “analysis. Urine samples were collected in metabolic cages every week and urine protein levels were measured, and serum samples were collected to measure serum levels of blood urea nitrogen (BUN) and creatinine (Cr) as described previously (Ka, S. M. et al. Decoy receptor 3 ameliorates an autoimmune crescentic glomerulonephritis model in mice. J Am Soc Nephrol 18:2473-2485; 2007).” for “analysis.”

renal ROS production = assay: Reactive oxygen species (superoxide anion, DHE labeling) in kidney of ASLN mice
Experimental: as §1
Kidney in situ superoxide anion production was determined by dihydroethidium (DHE) labeling. Fluorescent images were quantified by counting the percentage of positive nuclei in the total nuclei per kidney cross-section. Superoxide anion levels in serum and kidney tissues were measured as described previously and the results expressed as reactive luminescence units (RLU) per 15 min per milligram dry weight (i.e., RLU/15 min/mg dry weight).

Q: Which “proliferation of T cells in splenocytes” value (T cells in splenocytes) does the source give for `CC(C)=CCC[C@](C)(O[C@@H]1OC(CO)[C@@H](O)[C@@H](O)C1O)[C@H]1CC[C@]2(C)C1[C@H](O)CC1[C@@]3(C)CC[C@H](O)C(C)(C)C3CC[C@]12C` (stereo partly drawn) [ginsenoside M1, 20-O-β-D-glucopyranosyl-20(S)-protopanaxadiol] here?
A: The value was “significant decreased”.

Q: And the “renal lesions (neutrocyte infiltration, crescent-like formation, periglomerular inflammation, tubular atrophy, proteinaceous casts, fibrinoid necrosis)” value ([1]; vs ASLN+vehicle, all p<0.005)?
A: The value was “greatly decreased”.

Q: What about the glomerular proliferation [1] of the same compound?
A: The glomerular proliferation was “mild glomerular proliferation was present”.

Q: And the “renal mRNA levels of TLR7” value [2]?
A: The value was “significantly decreased”.

Q: What about the “serum MCP-1” value ([3]; p<0.005, FIG. 5B) of the same compound?
A: The value was “significantly decreased”.

Q: What about the “serum IL-12 p70” value ([3]; p<0.005, FIG. 5C) of the same compound?
A: The value was “significantly decreased”.

Q: And the “serum IL-6” value ([3]; p<0.005, FIG. 5D)?
A: Its value is “significantly decreased”.

Q: And the “serum TNFα” value ([3]; p<0.005, FIG. 5E)?
A: The value was “significantly decreased”.

Q: And the “serum IL-10” value ([3]; p<0.005, FIG. 5F)?
A: Its value is “significantly decreased”.

Q: And the “serum IFN-γ” value ([3]; p<0.01, FIG. 5A)?
A: The value was “significant decreased”.

Q: And the “serum anti-dsDNA antibody level” value (anti-dsDNA antibodies)?
A: Its value is “significantly decreased”.

Q: And the “serum level of BUN” value ([4]; ASLN mice, daily oral gavage, vs ASLN group, p<0.05, FIG. 1C)?
A: Its value is “significantly decreased”.

Q: And the “serum level of creatinine” value ([4]; ASLN mice, daily oral gavage, vs ASLN group, p<0.05, FIG. 1D)?
A: The value was “significantly decreased”.

Q: And the “proteinuria (urine albumin/creatinine ratio)” value ([4]; ASLN mice, daily oral gavage, vs ASLN group, FIG. 1A)?
A: Its value is “significantly decreased”.

Q: And the hematuria ([4]; ASLN mice, daily oral gavage, vs ASLN group, FIG. 1B)?
A: Its hematuria is “significantly decreased”.

Q: What about the “development of lupus nephritis (overall conclusion)” value ([4]; summary of the ASLN mouse study) of the same compound?
A: The value was “effective in preventing development of lupus nephritis”.

Q: And the “renal ROS production (superoxide anion levels in renal tissues)” value (renal ROS production; vs ASLN group, p<0.01, FIG. 4A)?
A: Its value is “significantly decreased”.

Q: And the “DHE fluorescence intensity (in situ ROS production in kidney)” value (renal ROS production; week 3, FIGS. 4B and 4C)?
A: The value was “very low”.

Q: And the “DHE fluorescence intensity (in situ ROS production in kidney)” value (renal ROS production; week 5, FIGS. 4B and 4C)?
A: The value was “very low”.

Reference: patent US9844560B2, “Use of ginsenoside M1 for treating lupus nephritis” (priority 2014, dated 2017)
